Experimental data taken from US11312702B2, “Substituted quinoline-8-carbonitrile derivatives having androgen receptor degradation activity and uses thereof” (ACCUTAR BIOTECHNOLOGY INC., priority 2019, dated 2022).

What was measured:
Format in all cases: cell-based
androgen receptor (AR) = target: T1, androgen receptor (AR) (Homo sapiens, UniProt P10275, T878A); test: AR degradation activity in LNCAP cells (Western blot); conditions: LNCAP cell line, 24 hours after administration; DC50 = concentration for 50% target protein degradation
T1 construct: endogenous in cells; host or cells: LNCAP
T1 sequence (P10275 1-920 T878A): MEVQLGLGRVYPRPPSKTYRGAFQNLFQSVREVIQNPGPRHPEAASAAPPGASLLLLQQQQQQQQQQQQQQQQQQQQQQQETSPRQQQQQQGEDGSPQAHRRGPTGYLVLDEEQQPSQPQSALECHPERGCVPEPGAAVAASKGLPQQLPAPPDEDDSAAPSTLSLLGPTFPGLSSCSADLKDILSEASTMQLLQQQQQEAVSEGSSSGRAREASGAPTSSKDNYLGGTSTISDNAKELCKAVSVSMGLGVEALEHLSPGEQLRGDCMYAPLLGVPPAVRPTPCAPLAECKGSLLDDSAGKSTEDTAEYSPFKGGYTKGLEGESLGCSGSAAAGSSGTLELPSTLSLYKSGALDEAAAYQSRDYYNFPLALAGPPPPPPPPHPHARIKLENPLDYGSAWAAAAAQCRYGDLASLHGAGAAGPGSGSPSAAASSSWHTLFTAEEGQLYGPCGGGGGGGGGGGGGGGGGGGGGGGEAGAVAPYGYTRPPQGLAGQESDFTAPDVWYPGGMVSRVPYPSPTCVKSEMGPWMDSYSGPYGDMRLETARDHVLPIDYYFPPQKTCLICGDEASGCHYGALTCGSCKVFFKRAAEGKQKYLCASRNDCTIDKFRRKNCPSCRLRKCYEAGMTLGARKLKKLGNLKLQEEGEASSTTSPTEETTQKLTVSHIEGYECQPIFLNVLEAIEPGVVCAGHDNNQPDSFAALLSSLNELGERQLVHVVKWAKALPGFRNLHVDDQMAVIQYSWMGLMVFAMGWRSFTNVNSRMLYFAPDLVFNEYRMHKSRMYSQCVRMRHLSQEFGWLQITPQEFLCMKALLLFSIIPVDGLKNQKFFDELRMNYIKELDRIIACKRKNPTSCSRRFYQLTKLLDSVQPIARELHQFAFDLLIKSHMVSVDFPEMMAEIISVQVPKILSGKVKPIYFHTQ
Procedure: LNCAP, VCAP and 22Rv1 cells were plated in 24-well plates at 1.5×10E5 cells/well in the RPMI growth medium containing 10% FBS and 1% Penicillin Streptomycin, and then incubated at 37° C. overnight. The following day, the test compound was administered to the cells by using 1000× compound stock solution prepared in DMSO at various concentrations. After administration of the compound, the cells were then incubated at 37° C. for 24 hours. Upon completion, the cells were washed with PBS and protein was collected in Laemmli sample buffer (1×; VWR International). Proteins in cell lysate were separated by SDS-PAGE and transferred to Odyssey nitrocellulose membranes (Licor) with iblot® dry blotting transfer system (ThermoFisher). Nonspecific binding was blocked by incubating membranes with Intercept Blocking Buffer (Licor) for 1 hour at room temperature with gentle shaking. The membranes were then incubated overnight at 4° C. with Primary antibodies rabbit anti-AR (1:1,000, Cell Signaling, 5153) and mouse anti-GAPDH (1:5,000, Santa Cruz Biotechnology, sc-47724) diluted in Intercept Blocking Buffer containing 0.1% Tween 20. After washing 3 times with TBS-T, the membranes were incubated with IRDye® […] goat anti-mouse IgG (1:20,000, Licor) or IRDye®8000W goat anti-rabbit IgG (1:20,000, Licor) for 1 hour. After TBS-T washes, membranes were rinsed in TBS and scanned on Odyssey® CLx Imaging System (Licor). The bands were quantified using Image Studio™ Software (Licor).
(§1) Table 4 summarizes the androgen receptor (AR) degradative activity and cell growth inhibition of exemplary compounds in (a) LNCAP, VCAP, and 22Rv1 cell lines 24 hours after administration of the compound; (b) RAMOS cell line 3 days after administration of the compound; and (c) VCAP cell line 6 days after administration of the compound. DC50: compound concentration needed for 50% target protein degradation.

VCAP cells = test: Cell growth inhibition for VCAP cells (CellTiter-Glo); conditions: Homo sapiens, 144 h; VCAP cell line, 6 days after administration, 0.1 nM R1881, charcoal-stripped FBS
Procedure: VCAP cells (ATCC) were seeded in 96-well plates at 3000 cell/well in 80 μl of DMEM growth medium containing 10% charcoal-stripped FBS (CSS) and 1% Penicillin/Streptomycin. Cells were incubated at 37° C. overnight. The following day, the test compound was administered to the cells by using 10× compound stock solution prepared in growth medium at various concentrations. Four hours later, 0.1 nM R1881 (Sigma) was administered to the cells by using 10× compound stock solution prepared in growth medium. 0.1% DMSO with or without 0.1 nM R1881 was administered as control. Cells were then incubated at 37° C. for 6 days. Before CelTiter-Glo assay, the plates were equilibrated at room temperature for approximately 10 minutes. 100 ul of CellTiter-Glo® Reagent (Promega) was added to each well. The plates were then incubated at room temperature for 10 minutes and luminescence was recorded by EnSpire plate reader (PerkinElmer).
as §1

RAMOS cells = test: Cell growth inhibition for Ramos cells (CellTiter-Glo); conditions: Homo sapiens, 72 h; RAMOS cell line, 3 days after administration
Procedure: RAMOS cells (ATCC) were seeded in 96-well plates at 16,000 cell/well in 90 μl of RPMI growth medium containing 10% Heat-Inactivated Fetal Bovine Serum and 1% Penicillin/Streptomycin. The test compound was administered to the cells by using 10× compound stock solution prepared in growth medium at various concentrations. After administration of the compound, cells were then incubated at 37° C. for 3 days. Before CellTiter-Glo assay, the plates were equilibrated at room temperature for approximately 10 minutes. 100 ul of CellTiter-Glo® Reagent (Promega) was added to each well. The plates were then incubated at room temperature for 10 minutes and luminescence was recorded by EnSpire plate reader (PerkinElmer).
as §1

Compound | DC50 (androgen receptor (AR)) [nM] | GI50 (VCAP cells) [nM] | GI50 (RAMOS cells) [nM]
CC(C)N(CC1CCN(c2ccc(C(=O)NC3C(C)(C)C(Oc4ccc(C#N)c5ncccc45)C3(C)C)cn2)CC1)C1CC(Oc2ccc3c(c2)C(=O)N(C2CCC(=O)NC2=O)C3=O)C1 (stereo not drawn) [Compound 2-11, N-((1,3-trans)-3-((8-cyanoquinolin-5-yl)oxy)-2,2,4,4-tetramethylcyclobutyl)-6-(4-((((1r,3r)-3-((2-(2,6-dioxopiperidin-3-yl)-1,3-dioxoisoindolin-5-yl)oxy)cyclobutyl)(isopropyl)amino)methyl)piperidin-1-yl)nicotinamide] | 2.8 | – | –
CC1(C)C(NC(=O)c2ccc(N3CCC(CN4CCN(c5ccc6c(c5)CN([C@H]5CCC(=O)NC5=O)C6=O)CC4)CC3)nn2)C(C)(C)C1Oc1ccc(C#N)c2ncccc12 (stereo partly drawn) [Compound 2-31, N-((1,3-trans)-3-((8-cyanoquinolin-5-yl)oxy)-2,2,4,4-tetramethylcyclobutyl)-6-(4-((4-(2-((S)-2,6-dioxopiperidin-3-yl)-1-oxoisoindolin-5-yl)piperazin-1-yl)methyl)piperidin-1-yl)pyridazine-3-carboxamide] | 0.6 | 9.2 | > 3000
CC1(C)C(NC(=O)c2ccc(N3CCC(CN4CCN(c5cc6c(cc5F)C(=O)N(C5CCC(=O)NC5=O)C6=O)CC4)CC3)nc2)C(C)(C)C1Oc1ccc(C#N)c2ncccc12 (stereo not drawn) [Compound 2-36, N-((1,3-trans)-3-((8-cyanoquinolin-5-yl)oxy)-2,2,4,4-tetramethylcyclobutyl)-6-(4-((4-(2-(2,6-dioxopiperidin-3-yl)-6-fluoro-1,3-dioxoisoindolin-5-yl)piperazin-1-yl)methyl)piperidin-1-yl)nicotinamide] | 1.4 | – | –
CC1(C)C(NC(=O)c2ccc(N3CCC(CN4CCN(c5cc6c(cc5F)C(=O)N(C5CCC(=O)NC5=O)C6=O)CC4)CC3)cc2)C(C)(C)C1Oc1ccc(C#N)c2ncccc12 (stereo not drawn) [Compound 2-47, N-((1,3-trans)-3-((8-cyanoquinolin-5-yl)oxy)-2,2,4,4-tetramethylcyclobutyl)-4-(4-((4-(2-(2,6-dioxopiperidin-3-yl)-6-fluoro-1,3-dioxoisoindolin-5-yl)piperazin-1-yl)methyl)piperidin-1-yl)benzamide] | 0.8 | – | –
CC1(C)C(NC(=O)c2ccc(N3CCC(CN4CCN(c5cc6c(cc5F)C(=O)N(C5CCC(=O)NC5=O)C6=O)CC4)CC3)c(F)c2)C(C)(C)C1Oc1ccc(C#N)c2ncccc12 (stereo not drawn) [Compound 2-48, N-((1,3-trans))-3-((8-cyanoquinolin-5-yl)oxy)-2,2,4,4-tetramethylcyclobutyl)-4-(4-((4-(2-(2,6-dioxopiperidin-3-yl)-6-fluoro-1,3-dioxoisoindolin-5-yl)piperazin-1-yl)methyl)piperidin-1-yl)-3-fluorobenzamide] | 3.8 | – | –
CC1(C)C(NC(=O)c2cnc(N3CCC(CN4CCN(c5cc6c(cc5F)C(=O)N(C5CCC(=O)NC5=O)C6=O)CC4)CC3)nc2)C(C)(C)C1Oc1ccc(C#N)c2ncccc12 (stereo not drawn) [Compound 2-50, N-((1,3-trans)-3-((8-cyanoquinolin-5-yl)oxy)-2,2,4,4-tetramethylcyclobutyl)-2-(4-((4-(2-(2,6-dioxopiperidin-3-yl)-6-fluoro-1,3-dioxoisoindolin-5-yl)piperazin-1-yl)methyl)piperidin-1-yl)pyrimidine-5-carboxamide] | 0.6 | – | –
CC1(C)C(NC(=O)c2cnc(N3CCC(CN4CCN(c5cc6c(cc5F)C(=O)N(C5CCC(=O)NC5=O)C6=O)CC4)CC3)c(F)c2)C(C)(C)C1Oc1ccc(C#N)c2ncccc12 (stereo not drawn) [Compound 2-52, N-((1,3-trans)-3-((8-cyanoquinolin-5-yl)oxy)-2,2,4,4-tetramethylcyclobutyl)-6-(4-((4-(2-(2,6-dioxopiperidin-3-yl)-6-fluoro-1,3-dioxoisoindolin-5-yl)piperazin-1-yl)methyl)piperidin-1-yl)-5-fluoronicotinamide] | 1.3 | – | –

Stronger by DC50 (androgen receptor (AR)), values ahead:

DC50 (androgen receptor (AR)) [nM] | GI50 (VCAP cells) [nM] | GI50 (RAMOS cells) [nM] | Compound
0.2 | – | – | CN(CC1CCN(c2ccc(C(=O)NC3C(C)(C)C(Oc4ccc(C#N)c5ncccc45)C3(C)C)cn2)CC1)C1CC(Oc2ccc3c(c2)C(=O)N(C2CCC(=O)NC2=O)C3=O)C1 (stereo not drawn) [Compound 2-9, N-((1,3-trans)-3-((8-cyanoquinolin-5-yl)oxy)-2,2,4,4-tetramethylcyclobutyl)-6-(4-((((1r,3r)-3-((2-(2,6-dioxopiperidin-3-yl)-1,3-dioxoisoindolin-5-yl)oxy)cyclobutyl)(methyl)amino)methyl)piperidin-1-yl)nicotinamide]
0.2 | 11.5 | > 3000 | CC1(C)[C@H](NC(=O)c2cnc(N3CCC(CN4CCN(c5ccc6c(c5)CN([C@H]5CCC(=O)NC5=O)C6=O)CC4)CC3)nc2)C(C)(C)[C@H]1Oc1ccc(C#N)c2ncccc12 [Compound 2-30]
0.4 | – | – | CC1(C)C(NC(=O)c2ccc(N3CCC(CN4CCN(c5cc6c(cc5F)C(=O)N(C5CCC(=O)NC5=O)C6=O)CC4)CC3)nn2)C(C)(C)C1Oc1ccc(C#N)c2ncccc12 (stereo not drawn) [Compound 2-35, N-((1,3-trans)-3-((8-cyanoquinolin-5-yl)oxy)-2,2,4,4-tetramethylcyclobutyl)-6-(4-((4-(2-(2,6-dioxopiperidin-3-yl)-6-fluoro-1,3-dioxoisoindolin-5-yl)piperazin-1-yl)methyl)piperidin-1-yl)pyridazine-3-carboxamide]
0.5 | 11 | > 3000 | CC1(C)[C@H](NC(=O)c2ccc(N3CCC(CN4CCN(c5ccc6c(c5)CN(C5CCC(=O)NC5=O)C6=O)CC4)CC3)c(F)c2)C(C)(C)[C@H]1Oc1ccc(C#N)c2ncccc12 (stereo partly shown) [Compound 2-51, N-((1r,3r)-3-((8-cyanoquinolin-5-yl)oxy)-2,2,4,4-tetramethylcyclobutyl)-4-(4-((4-(2-(2,6-dioxopiperidin-3-yl)-1-oxoisoindolin-5-yl)piperazin-1-yl)methyl)piperidin-1-yl)-3-fluorobenzamide]
0.4 | 11.9 | – | CC1(C)[C@H](NC(=O)c2ccc(N3CCC(CN4CCN(c5cc6c(cc5F)C(=O)N([C@H]5CCC(=O)NC5=O)C6)CC4)CC3)c(F)c2)C(C)(C)[C@H]1Oc1ccc(C#N)c2ncccc12 [Compound 2-53, N-((1,3-trans)-3-((8-cyanoquinolin-5-yl)oxy)-2,2,4,4-tetramethylcyclobutyl)-4-(4-((4-(2-((S)-2,6-dioxopiperidin-3-yl)-6-fluoro-1-oxoisoindolin-5-yl)piperazin-1-yl)methyl)piperidin-1-yl)-3-fluorobenzamide]
